Measurements reported in ChEMBL document CHEMBL3227942, “Synthetic studies on beta-lactam antibiotics. Part 101. Synthesis of 7beta-[2-carboxy-2-(4-hydroxyphenyl)acetamido]-7alpha-methoxy-3-[[(1-methyl-1H-tetrazol-5-yl)thio]-methyl]-1-oxa-1-dethia-3-cephem-4-carboxylic acid disodium salt (6059-S) and its related 1-oxacephems” (1979).
Values after ≈ are worked out from the molar mass of the structure shown.

Key:
Format in all cases: functional
Staphylococcus aureus [1] = test: Antibacterial activity against beta-lactamase producing Staphylococcus aureus C-14
Serratia marcescens = test: Antibacterial activity against Serratia marcescens ATCC 13880
Proteus mirabilis = test: Antibacterial activity against Proteus mirabilis PR-4
Klebsiella pneumoniae [2] = test: Antibacterial activity against beta-lactamase producing Klebsiella pneumoniae 363
Proteus vulgaris = test: Antibacterial activity against Proteus vulgaris CN-329
Klebsiella pneumoniae [3] = test: Antibacterial activity against Klebsiella pneumoniae
Streptococcus pneumoniae = test: Antibacterial activity against Streptococcus pneumoniae I
Enterobacter cloacae = test: Antibacterial activity against Enterobacter cloacae 233
Pseudomonas aeruginosa = test: Antibacterial activity against Pseudomonas aeruginosa 24
Staphylococcus aureus [4] = test: Antibacterial activity against Staphylococcus aureus 209P JC-1
Escherichia coli = test: Antibacterial activity against Escherichia coli NIHJ JC-2

Row | SMILES | MIC (Staphylococcus aureus [1]) | MIC (Serratia marcescens) | MIC (Proteus mirabilis) | MIC (Klebsiella pneumoniae [2]) | MIC (Proteus vulgaris) | MIC (Klebsiella pneumoniae [3]) | MIC (Streptococcus pneumoniae) | MIC (Enterobacter cloacae) | MIC (Pseudomonas aeruginosa) | MIC (Staphylococcus aureus [4]) | MIC (Escherichia coli)
1 | CC(=O)OCC1=C(C(=O)O)N2C(=O)[C@@H](NC(=O)Cc3cccs3)[C@H]2OC1 | 0.1 µg/mL (≈ 0.263 µM) | > 100 µg/mL | 0.4 µg/mL (≈ 1.05 µM) | > 100 µg/mL | 50 µg/mL (≈ 131 µM) | 0.2 µg/mL (≈ 0.526 µM) | 0.025 µg/mL (≈ 0.0657 µM) | 100 µg/mL (≈ 263 µM) | > 100 µg/mL | 0.013 µg/mL (≈ 0.0342 µM) | 0.8 µg/mL (≈ 2.1 µM)
2 | CO[C@@]1(NC(=O)C(C(=O)[O-])c2ccc(O)cc2)C(=O)N2C(C(=O)[O-])=C(CSc3nnnn3C)CO[C@@H]21.[Na+].[Na+] (some centres not stated) [MOXALACTAM DISODIUM] | 6.3 µg/mL | 0.4 µg/mL | 0.1 µg/mL | 0.05 µg/mL | 0.1 µg/mL | 0.1 µg/mL | 3.1 µg/mL | 0.2 µg/mL | 25 µg/mL | 6.3 µg/mL | 0.1 µg/mL
3 | CO[C@]1(NC(=O)[C@H](OC=O)c2ccccc2)C(=O)N2C(C(=O)O)=C(CSc3nnnn3C)CS[C@@H]21 | 3.1 µg/mL (≈ 5.96 µM) | 12.5 µg/mL (≈ 24 µM) | 1.6 µg/mL (≈ 3.07 µM) | 0.8 µg/mL (≈ 1.54 µM) | 0.8 µg/mL (≈ 1.54 µM) | 0.8 µg/mL (≈ 1.54 µM) | 1.6 µg/mL (≈ 3.07 µM) | 12.5 µg/mL (≈ 24 µM) | > 100 µg/mL | 0.8 µg/mL (≈ 1.54 µM) | 1.6 µg/mL (≈ 3.07 µM)
4 | Cn1nnnc1SCC1=C(C(=O)O)N2C(=O)[C@@H](NC(=O)[C@H](O)c3ccccc3)[C@H]2SC1 [CEFAMANDOLE] | 0.4 µg/mL (≈ 0.865 µM) | 50 µg/mL (≈ 108 µM) | 0.8 µg/mL (≈ 1.73 µM) | > 100 µg/mL | 0.8 µg/mL (≈ 1.73 µM) | 0.4 µg/mL (≈ 0.865 µM) | 0.1 µg/mL (≈ 0.216 µM) | 3.1 µg/mL (≈ 6.7 µM) | > 100 µg/mL | 0.1 µg/mL (≈ 0.216 µM) | 0.4 µg/mL (≈ 0.865 µM)
5 | CC(=O)OCC1=C(C(=O)O)N2C(=O)[C@@H](NC(=O)Cc3cccs3)[C@H]2SC1 [CEPHALOTHIN] | 0.2 µg/mL (≈ 0.504 µM) | > 100 µg/mL | 3.1 µg/mL (≈ 7.82 µM) | > 100 µg/mL | 50 µg/mL (≈ 126 µM) | 0.8 µg/mL (≈ 2.02 µM) | 0.1 µg/mL (≈ 0.252 µM) | > 100 µg/mL | > 100 µg/mL | 0.05 µg/mL (≈ 0.126 µM) | 6.3 µg/mL (≈ 15.9 µM)
6 | CO[C@@]1(NC(=O)[C@H](OC=O)c2ccccc2)C(=O)N2C(C(=O)O)=C(CSc3nnnn3C)CO[C@@H]21 | 0.4 µg/mL (≈ 0.793 µM) | 3.1 µg/mL (≈ 6.14 µM) | 0.2 µg/mL (≈ 0.396 µM) | 0.1 µg/mL (≈ 0.198 µM) | 0.2 µg/mL (≈ 0.396 µM) | 0.1 µg/mL (≈ 0.198 µM) | 0.2 µg/mL (≈ 0.396 µM) | 3.1 µg/mL (≈ 6.14 µM) | > 100 µg/mL | 0.4 µg/mL (≈ 0.793 µM) | 0.05 µg/mL (≈ 0.0991 µM)
7 | Cn1nnnc1SCC1=C(C(=O)O)N2C(=O)[C@@H](NC(=O)[C@H](O)c3ccccc3)[C@H]2OC1 | 0.4 µg/mL (≈ 0.896 µM) | 6.3 µg/mL (≈ 14.1 µM) | 0.1 µg/mL (≈ 0.224 µM) | 100 µg/mL (≈ 224 µM) | 0.1 µg/mL (≈ 0.224 µM) | 0.05 µg/mL (≈ 0.112 µM) | 0.025 µg/mL (≈ 0.056 µM) | 0.4 µg/mL (≈ 0.896 µM) | > 100 µg/mL | 0.025 µg/mL (≈ 0.056 µM) | 0.05 µg/mL (≈ 0.112 µM)
